Results reported in ChEMBL document CHEMBL1144167, “Development and biological evaluation of C(60) fulleropyrrolidine-thalidomide dyad as a new anti-inflammation agent” (2008).
The source made the active and inactive calls. No cut-off for these calls is given here.

Legend:
RAW264.7 [1] = assay: Antiinflammatory activity in mouse RAW264.7 cells assessed as inhibition of LPS-induced TNFalpha synthesis at 10 uM pretreated for 3 hrs before LPS challenge assessed after 24 hrs by ELISA relative to control; assay type: functional; parameters: scale not given: the % may be the effect or the level left
RAW264.7 [2] = assay: Antiinflammatory activity in mouse LPS-activated RAW264.7 cells assessed as mean fluorescent intensity of ROS scavenging activity at 10 uM pretreated for 3 hrs before LPS challenge by FACS; assay type: functional
RAW264.7 [3] = assay: Antiinflammatory activity in mouse LPS-activated RAW264.7 cells assessed as ROS scavenging activity at 10 uM pretreated for 3 hrs before LPS challenge measured by decrease in fluorescent intensity by confocal microscopy; assay type: functional, cell-based
RAW264.7 [4] = assay: Reduction in iNOS expression in LPS-activated mouse RAW264.7 cells at 1 uM pretreated for 3 hrs before LPS challenge assessed after 24 hrs by Western blot; assay type: functional, cell-based
RAW264.7 [5] = assay: Reduction in iNOS expression in LPS-activated mouse RAW264.7 cells at 10 uM pretreated for 3 hrs before LPS challenge assessed after 24 hrs by Western blot; assay type: functional, cell-based
RAW264.7 [6] = assay: Reduction in pERK1/2 expression in LPS-activated mouse RAW264.7 cells at 10 uM pretreated for 3 hrs before LPS challenge assessed after 24 hrs by Western blot; assay type: functional, cell-based
RAW264.7 [7] = assay: Antiinflammatory activity in mouse RAW264.7 cells assessed as inhibition of LPS-induced nitric oxide production pretreated for 3 hrs before LPS challenge assessed after 24 hrs by griess assay; assay type: functional, cell-based
RAW264.7 [8] = assay: Antiinflammatory activity in mouse RAW264.7 cells assessed as inhibition of LPS-induced nitric oxide production at 10 uM pretreated for 3 hrs before LPS challenge assessed after 24 hrs by griess assay relative to control; assay type: functional; parameters: scale not given: the % may be the effect or the level left

For `O=C1CCC(N2C(=O)c3ccccc3C2=O)C(=O)N1` (stereo not drawn) [THALIDOMIDE], the Activity (RAW264.7 [1]) was 55.5%, the Flu intensity (RAW264.7 [2]) was 468.37 and the Activity (RAW264.7 [3]) was “Active”. For the same compound, the Activity (RAW264.7 [4]) was “Active”, the Activity (RAW264.7 [5]) was “Active” and the Activity (RAW264.7 [6]) was “Active”. The Activity (RAW264.7 [7]) was “Dose-dependent effect” and the Activity (RAW264.7 [8]) was 44.1%.
